The text below walks through data of the NIST ThermoML archive (doi:10.1016/j.tca.2010.06.003).

The conditions of this data set: for Normal melting temperature: Crystal; for Triple point temperature: Crystal 2, DTA.

Numbers after ± are expanded uncertainties.

As to `O=[N+]([O-])[O-].[Na+]` [sodium nitrate], the Normal melting temperature was determined as 306.5 ± 2 °C and the Triple point temperature turned out to be 545.5 ± 0.5 K.

As to `O=[N+]([O-])[O-].[K+]` [potassium nitrate], the Normal melting temperature amounted to 333.6 ± 2 °C and the Triple point temperature was 405.6 ± 0.5 K.
